Laboratory results taken from patent US6506936B1, “N-substituted arylsulfonylamino hydroxamic acids useful as inhibitors of c-proteinase and for treating or preventing disorders related to unregulated collagen production” (FibroGen, Inc., priority 1999, dated 2003).
Where two headings read alike, the source gives them in different places.

How the values were obtained:
[1] = system: human foreskin fibroblasts; assay: Cytotoxicity: metabolic activity (WST-1) of quiescent fibroblasts exposed to inhibitor; format: cell-based; details: 25 μM compound, 0.5% DMSO, 48 hours, 60% or below = very sick or dead
Method: C-proteinase inhibitors were studied in cytotoxicity assays wherein quiescent cells were exposed to C-proteinase inhibitors for a given time and cell viability measured. By examining cellular metabolic activity, cell viability and cell survival were determined.
C-proteinase inhibitors were tested on human foreskin fibroblasts that had been grown to confluence in 96 well microtiter plates in Dulbecco's Modified Eagle Medium (DMEM) containing 10% fetal calf serum. Shortly before adding the inhibitors, the media was removed and 90 μl per microtiter well of fresh serum-free DMEM was added to the cells. The C-proteinase inhibitors were made up as concentrated stocks containing compound at 250 μM in the presence of 5% DMSO as solvent. A concentrated stock of 10 μl was added to each microtiter well to give a final compound concentration of 25 μM in the presence of 0.5% DMSO. The cells were incubated in the presence of the C-proteinase inhibitor for 48 hours, and then cell viability and survival were measured as a function of metabolic activity. To examine cellular metabolic activity, 10 μl of WST-1 reagent (Boehringer Mannheim) was added to each well of a 96 well microtiter plate containing quiescent cells that were already in media. The plate was incubated at 37° C. for 120 minutes and removed. The absorbance at 450 nm-650 nm was recorded. […] Controls included untreated healthy cells, and cells killed with 0.1% saponin.
Cytotoxicity was evaluated as a function of cellular survival. Cellular survival was determined by measuring the metabolic activity of the quiescent cells after exposure to the C-proteinase inhibitors. To determine the metabolic activity of the cells, the color change of a trazolium dye over time was examined according to Mossmann, […], Immunol. Methods 65:66; Carmichael, 1987, Cancer Res 47:936, incorporated herein by reference. Healthy cells cleaved the dye producing a colored product that can be quantitated. […] Dead cells had no metabolic activity and no effect on the dye was shown.
The amount of dye cleaved by cells that had been incubated with inhibitor, expressed as a percentage relative to untreated cells, is shown in TABLE 2. Cells that register at 60% or below are considered either very sick or dead. Control cells that were intentionally killed give a value of close to 20%.

[2] = target: T1, recombinant human C-proteinase (Homo sapiens, UniProt P13497); assay: C-proteinase IC50 assay with fluorogenic peptide; format: biochemical
T1 sequence (P13497 121-986): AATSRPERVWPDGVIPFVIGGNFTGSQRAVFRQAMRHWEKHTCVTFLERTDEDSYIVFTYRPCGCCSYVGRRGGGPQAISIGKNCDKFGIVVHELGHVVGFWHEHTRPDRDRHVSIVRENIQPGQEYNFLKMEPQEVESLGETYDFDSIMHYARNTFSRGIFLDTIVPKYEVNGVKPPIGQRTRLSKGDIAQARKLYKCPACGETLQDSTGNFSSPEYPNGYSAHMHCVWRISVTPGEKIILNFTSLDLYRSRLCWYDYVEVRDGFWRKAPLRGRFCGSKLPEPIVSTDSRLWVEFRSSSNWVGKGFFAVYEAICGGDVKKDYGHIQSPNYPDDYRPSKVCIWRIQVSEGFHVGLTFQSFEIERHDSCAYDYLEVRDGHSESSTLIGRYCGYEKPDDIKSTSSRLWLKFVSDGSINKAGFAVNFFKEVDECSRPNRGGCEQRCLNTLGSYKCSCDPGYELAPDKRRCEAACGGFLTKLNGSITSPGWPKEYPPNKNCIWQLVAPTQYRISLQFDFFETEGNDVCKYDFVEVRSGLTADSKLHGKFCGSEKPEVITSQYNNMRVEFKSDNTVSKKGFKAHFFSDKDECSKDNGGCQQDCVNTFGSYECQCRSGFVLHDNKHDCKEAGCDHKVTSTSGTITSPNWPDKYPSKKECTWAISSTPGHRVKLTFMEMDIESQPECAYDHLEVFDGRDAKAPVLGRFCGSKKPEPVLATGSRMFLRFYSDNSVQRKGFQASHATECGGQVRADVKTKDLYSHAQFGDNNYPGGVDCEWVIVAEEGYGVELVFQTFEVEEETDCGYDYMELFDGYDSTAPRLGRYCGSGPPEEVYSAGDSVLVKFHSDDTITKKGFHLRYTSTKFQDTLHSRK
Method: The reaction was started with the addition of 20 μl of the recombinant human C-proteinase mix. The reaction proceeded for 4 hours at 37° C. and the fluorescence was measured using a Bio-Tek Fl-600.

[3] = recombinant human C-proteinase, 50 μM fluorogenic peptide, 4 hours at 37° C., read-out: IC50 (μM) Of Various C-Proteinase Inhibitors

COc1ccc(S(=O)(=O)N(CCC(=O)NO)CC2COc3ccccc3O2)cc1 (stereo not shown) [Compound 1374]
Percent Metabolic Activity of Fibroblasts Exposed To Various C-Proteinase Inhibitors Relative to Untreated Fibroblasts [1]: 117.6%

CC(=O)Nc1ccc(S(=O)(=O)N(CCC(=O)NO)CCc2cccs2)cc1 [Compound 1411]
Percent Metabolic Activity of Fibroblasts Exposed To Various C-Proteinase Inhibitors Relative to Untreated Fibroblasts [1]: 108.2%

N/C(=N\O)c1cccc(S(=O)(=O)N(CCC(=O)NO)Cc2ccc3c(c2)OCO3)c1 [Compound 1458]
Percent Metabolic Activity of Fibroblasts Exposed To Various C-Proteinase Inhibitors Relative to Untreated Fibroblasts [1]: 111.0%

O=C(CCN(CCc1cccs1)S(=O)(=O)c1ccc(Br)s1)NO [Compound 1417]
Percent Metabolic Activity of Fibroblasts Exposed To Various C-Proteinase Inhibitors Relative to Untreated Fibroblasts [1]: 120.3%

CS(=O)(=O)c1ccc(S(=O)(=O)N(CCC(=O)NO)CCc2cccs2)cc1 [Compound 1463]
Percent Metabolic Activity of Fibroblasts Exposed To Various C-Proteinase Inhibitors Relative to Untreated Fibroblasts [1]: 110.0%

N/C(=N\O)c1cccc(S(=O)(=O)N(CCC(=O)NO)CCc2cccs2)c1 [Compound 1457]
Percent Metabolic Activity of Fibroblasts Exposed To Various C-Proteinase Inhibitors Relative to Untreated Fibroblasts [1]: 107.4%

CCCCCCCCS(=O)(=O)N(CCC(=O)NO)Cc1ccc2c(c1)OCO2 [Compound 1359]
Percent Metabolic Activity of Fibroblasts Exposed To Various C-Proteinase Inhibitors Relative to Untreated Fibroblasts [1]: 101.1%

COc1ccc(S(=O)(=O)N(CCC(=O)NO)CCc2ccc(Cl)cc2)cc1 [Compound 1300]
Percent Metabolic Activity of Fibroblasts Exposed To Various C-Proteinase Inhibitors Relative to Untreated Fibroblasts [1]: 109.9%

COc1ccccc1CCN(CCC(=O)NO)S(=O)(=O)c1ccc(C(=O)O)cc1 [Compound 1405]
Percent Metabolic Activity of Fibroblasts Exposed To Various C-Proteinase Inhibitors Relative to Untreated Fibroblasts [1]: 114.5%

O=C(CCN(CCc1cccs1)S(=O)(=O)Cc1ccccc1)NO [Compound 1414]
Percent Metabolic Activity of Fibroblasts Exposed To Various C-Proteinase Inhibitors Relative to Untreated Fibroblasts [1]: 112.6%

O=C(CCN(Cc1ccc2c(c1)OCO2)S(=O)(=O)c1ccc(S(=O)(=O)c2ccccc2)s1)NO [Compound 1361]
Percent Metabolic Activity of Fibroblasts Exposed To Various C-Proteinase Inhibitors Relative to Untreated Fibroblasts [1]: 103.4%

COc1ccc(S(=O)(=O)N(CCC(=O)NO)Cc2ccc3c(c2)OCO3)cc1OC [Compound 1410]
Percent Metabolic Activity of Fibroblasts Exposed To Various C-Proteinase Inhibitors Relative to Untreated Fibroblasts [1]: 108.6%

O=C(CCN(Cc1ccc2c(c1)OCO2)S(=O)(=O)c1ccc(Br)s1)NO [Compound 1367]
Percent Metabolic Activity of Fibroblasts Exposed To Various C-Proteinase Inhibitors Relative to Untreated Fibroblasts [1]: 114.5%

O=C(CCN(CCc1cccs1)S(=O)(=O)c1cccs1)NO [Compound 1425]
Percent Metabolic Activity of Fibroblasts Exposed To Various C-Proteinase Inhibitors Relative to Untreated Fibroblasts [1]: 109.5%

CS(=O)(=O)c1ccc(S(=O)(=O)N(CCC(=O)NO)Cc2ccc3c(c2)OCO3)cc1 [Compound 1464]
Percent Metabolic Activity of Fibroblasts Exposed To Various C-Proteinase Inhibitors Relative to Untreated Fibroblasts [1]: 111.0%

O=C(CCN(Cc1ccc2c(c1)OCO2)S(=O)(=O)c1cccs1)NO [Compound 1371]
Percent Metabolic Activity of Fibroblasts Exposed To Various C-Proteinase Inhibitors Relative to Untreated Fibroblasts [1]: 114.4%

N/C(=N\O)c1ccc(S(=O)(=O)N(CCC(=O)NO)CCc2cccs2)cc1 [Compound 1409]
Percent Metabolic Activity of Fibroblasts Exposed To Various C-Proteinase Inhibitors Relative to Untreated Fibroblasts [1]: 108.8%

N/C(=N\O)c1ccc(S(=O)(=O)N(CCC(=O)NO)Cc2ccc3c(c2)OCO3)cc1 [Compound 1369]
Percent Metabolic Activity of Fibroblasts Exposed To Various C-Proteinase Inhibitors Relative to Untreated Fibroblasts [1]: 117.1%

O=C(CCN(CCc1cccs1)S(=O)(=O)c1ccc(S(=O)(=O)c2ccccc2)s1)NO [Compound 1419]
Percent Metabolic Activity of Fibroblasts Exposed To Various C-Proteinase Inhibitors Relative to Untreated Fibroblasts [1]: 104.7%

COc1ccc(CCN(CCC(=O)NO)S(=O)(=O)c2cccc(/C(N)=N/O)c2)cc1 [compound 1456]
IC50 ([2]; IC50 (μM) Of Various C-Proteinase Inhibitors): 0.4 µM

CCCCOc1ccc(S(=O)(=O)N(CCC(=O)NO)Cc2ccc3c(c2)OCO3)cc1 [Compound 1372]
Percent Metabolic Activity of Fibroblasts Exposed To Various C-Proteinase Inhibitors Relative to Untreated Fibroblasts [1]: 109.2%

COc1ccc(S(=O)(=O)N(CCC(=O)NO)Cc2ccc3c(c2)OCO3)cc1OC [compound 1410]
IC50 [2, 3]: 1.77 µM

O=C(CCN(Cc1ccc2c(c1)OCO2)S(=O)(=O)c1cccc2nsnc12)NO [Compound 1362]
Percent Metabolic Activity of Fibroblasts Exposed To Various C-Proteinase Inhibitors Relative to Untreated Fibroblasts [1]: 119.4%

COc1ccc(CCN(CCC(=O)NO)S(=O)(=O)c2cccc(/C(N)=N/O)c2)cc1 [Compound 1456]
Percent Metabolic Activity of Fibroblasts Exposed To Various C-Proteinase Inhibitors Relative to Untreated Fibroblasts [1]: 106.8%

N/C(=N\O)c1cccc(S(=O)(=O)N(CCC(=O)NO)CCc2cccs2)c1 [compound 1457]
IC50 [2, 3]: 0.84 µM

CC(=O)Nc1ccc(S(=O)(=O)N(CCC(=O)NO)Cc2ccc3c(c2)OCO3)cc1 [Compound 1357]
Percent Metabolic Activity of Fibroblasts Exposed To Various C-Proteinase Inhibitors Relative to Untreated Fibroblasts [1]: 108.1%

CCCCOc1ccc(S(=O)(=O)N(CCC(=O)NO)CCc2cccs2)cc1 [Compound 1416]
Percent Metabolic Activity of Fibroblasts Exposed To Various C-Proteinase Inhibitors Relative to Untreated Fibroblasts [1]: 92.8%

COc1ccc(S(=O)(=O)N(CCC(=O)NO)C2C3CC4CC(C3)CC2C4)cc1 (stereo not shown) [Compound 1335]
Percent Metabolic Activity of Fibroblasts Exposed To Various C-Proteinase Inhibitors Relative to Untreated Fibroblasts [1]: 113.3%
